Reference: patent US10626095B2, “Cyanotriazole compounds” (OTSUKA PHARMACEUTICAL CO., LTD., priority 2013, dated 2020)

Key:
[1] = test system: NaCT-CHO (CHO cells stably expressing human NaCT); experiment: Assay of the citric acid cycle activation ([1,5-14C]-citric acid, diffusion of [14C]-CO2); format: cell-based; conditions: 1 hour incubation at 37° C. with [1,5-14C]-citric acid
Procedure, shortened: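 NaCT-CHO cells (pME-CHO empty-vector cells for non-specific counts) were incubated 1 h at 37 °C in Na+-containing HEPES-Tris pH 7.4 with compound plus an equal volume of 0.4 mM [1,5-14C]-citric acid solution. Residual cell radioactivity was counted, [14C]-CO2 diffusion was taken as (Total−R)/(Total−NS)×100%, and EC50 was derived by regression.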

[2] = test system: Zucker Diabetic Fatty (ZDF) rat; experiment: Meal load test in type 2 diabetic model rats (postprandial blood glucose); format: in vivo; parameters: unit not given here; conditions: ZDF rats fasted overnight, blood glucose one hour after meal loading (50 kcal/kg)
Protocol: Effects on Type 2 Diabetes: Meal Load Test
To evaluate whether a cyanotriazol compound improves diabetes or not, especially related to postprandial blood glucose, meal load test was performed using one of type 2 diabetic model rats, the Zucker Diabetic Fatty (ZDF) rat (Charles river, Japan). About 24 animals fasted overnight (17 h) were taken blood samples from the tail veins, and measured blood glucose levels (Pre BG) and body weights (BW). Proper animals were selected and divided into […] (n=6) based on the Pre BG and BW using SAS Statistical Analysis System (SAS institute Japan Ltd. Release 9.1). The compounds to be tested (10 or 30 mg/kg body weight in 5% Arabia gum) or Arabia gum solution only (vehicle group) were orally administrated via gavage two hours prior to or just before meal loading (50 kcal/kg body weight). The meal suspension was prepared by mixing purified AIN-93G (Norsan Corp, Yokohama, Japan) and distilled water (2:3, w/v). One-hour after meal loading, blood glucose (BG1h) of each animal was measured. Effectiveness of each compound was shown by ? BG1h (BG1h difference between compound group and vehicle group). Although a set of 24 animals was used several times (from 13 weeks to 21 weeks of age), at least a one-week interval was placed from one to another test.

Compound: Cc1cc(-c2ccc(C(F)(F)F)nc2)cc(-c2nn[nH]c2C#N)c1 [Example 11, 5-[3-methyl-5-(6-trifluoromethyl-pyridin-3-yl)-phenyl]-3H-[1,2,3]triazole-4-carbonitrile]
- EC50 [1]: 670 nM
- BG1h (BG1h difference between compound group and vehicle group) ([2]; oral 10 mg/kg in 5% Arabia gum): −93.2

Compound: N#Cc1[nH]nnc1-c1cc(-c2cccc(C(F)(F)F)n2)cc(C(F)(F)F)c1 [Example 14, 5-[3-trifluoromethyl-5-(6-trifluoromethyl-pyridin-2-yl)-phenyl]-3H-[1,2,3]triazole-4-carbonitrile]
- EC50 [1]: 500 nM
- BG1h (BG1h difference between compound group and vehicle group) ([2]; oral 10 mg/kg in 5% Arabia gum): −79.2

Compound: COc1cc(-c2cc(C(F)(F)F)ccn2)cc(-c2nn[nH]c2C#N)c1 [Example 15, 5-[3-methoxy-5-(4-trifluoromethyl-pyridin-2-yl)-phenyl]-3H-[1,2,3]triazole-4-carbonitrile]
- EC50 [1]: 490 nM
- BG1h (BG1h difference between compound group and vehicle group) ([2]; oral 10 mg/kg in 5% Arabia gum): −50.5

Compound: N#Cc1[nH]nnc1-c1cccc(-c2nccc(C(F)(F)F)n2)c1 [Example 21, 5-[3-(4-trifluoromethyl-pyrimidin-2-yl)-phenyl]-3H-[1,2,3]triazole-4-carbonitrile]
- EC50 [1]: 770 nM
- BG1h (BG1h difference between compound group and vehicle group) ([2]; oral 10 mg/kg in 5% Arabia gum): −95.7

Compound: Cc1cc(-c2nccc(C(F)(F)F)n2)cc(-c2nn[nH]c2C#N)c1 [Example 22, 5-[3-methyl-5-(4-trifluoromethyl-pyrimidin-2-yl)-phenyl]-3H-[1,2,3]triazole-4-carbonitrile]
- EC50 [1]: 650 nM
- BG1h (BG1h difference between compound group and vehicle group) ([2]; oral 10 mg/kg in 5% Arabia gum): −108.5

Compound: N#Cc1[nH]nnc1-c1cc(Cl)cc(-c2nccc(C(F)(F)F)n2)c1 [Example 23, 5-[3-chloro-5-(4-trifluoromethyl-pyrimidin-2-yl)-phenyl]-3H-[1,2,3]triazole-4-carbonitrile]
- EC50 [1]: 450 nM
- BG1h (BG1h difference between compound group and vehicle group) ([2]; oral 10 mg/kg in 5% Arabia gum): −137.0

Compound: N#Cc1[nH]nnc1-c1cc(Cl)cc(-c2ccc(OC(F)(F)F)cc2)c1 [Example 29, 5-(5-chloro-4′-trifluoromethoxy-biphenyl-3-yl)-3H-[1,2,3]triazole-4-carbonitrile]
- EC50 [1]: 680 nM
- BG1h (BG1h difference between compound group and vehicle group) ([2]; oral 10 mg/kg in 5% Arabia gum): −37.3

Compound: N#Cc1ccc(/C=C/c2cccc(-c3nn[nH]c3C#N)c2)cc1 [Example 41, 5-{3-[(E)-2-(4-cyano-phenyl)-vinyl]-phenyl}-3H-[1,2,3]triazole-4-carbonitrile]
- EC50 [1]: 390 nM
- BG1h (BG1h difference between compound group and vehicle group) ([2]; oral 10 mg/kg in 5% Arabia gum): −158.0

Compound: N#Cc1[nH]nnc1-c1cc(Cl)cc(/C=C/c2cccc(C(F)(F)F)c2)c1 [Example 47, 5-{3-chloro-5-[(E)-2-(3-trifluoromethyl-phenyl)-vinyl]-phenyl}-3H-[1,2,3]triazole-4-carbonitrile]
- EC50 [1]: 1070 nM
- BG1h (BG1h difference between compound group and vehicle group) ([2]; oral 10 mg/kg in 5% Arabia gum): −89.7

Compound: N#Cc1[nH]nnc1-c1cccc(/C=C/c2cncc(C(F)(F)F)c2)c1 [Example 49, 5-{3-[(E)-2-(5-trifluoromethyl-pyridin-3-yl)-vinyl]-phenyl}-3H-[1,2,3]triazole-4-carbonitrile]
- EC50 [1]: 480 nM
- BG1h (BG1h difference between compound group and vehicle group) ([2]; oral 10 mg/kg in 5% Arabia gum): −78.7

Compound: N#Cc1[nH]nnc1-c1cccc(/C=C/c2cc(C(F)(F)F)ccn2)c1 [Example 50, 5-{3-[(E)-2-(4-trifluoromethyl-pyridin-2-yl)-vinyl]-phenyl}-3H-[1,2,3]triazole-4-carbonitrile]
- EC50 [1]: 440 nM
- BG1h (BG1h difference between compound group and vehicle group) ([2]; oral 10 mg/kg in 5% Arabia gum): −120.0

Compound: N#Cc1[nH]nnc1-c1cc(/C=C/c2cccc(C(F)(F)F)n2)cc(C(F)(F)F)c1 [Example 51, 5-{3-trifluoromethyl-5-[(E)-2-(6-trifluoromethyl-pyridin-2-yl)-vinyl]-phenyl}-3H-[1,2,3]triazole-4-carbonitrile]
- EC50 [1]: 760 nM
- BG1h (BG1h difference between compound group and vehicle group) ([2]; oral 10 mg/kg in 5% Arabia gum): −79.0

Compound: N#Cc1[nH]nnc1-c1cccc(/C=C/c2nccc(C(F)(F)F)n2)c1 [Example 52, 5-{3-[(E)-2-(4-trifluoromethyl-pyrimidin-2-yl)-vinyl]-phenyl}-3H-[1,2,3]triazole-4-carbonitrile]
- EC50 [1]: 580 nM
- BG1h (BG1h difference between compound group and vehicle group) ([2]; oral 10 mg/kg in 5% Arabia gum): −120.4

Compound: N#Cc1[nH]nnc1-c1cccc(COc2cc(C(F)(F)F)ccn2)c1 [Example 55, 5-[3-(4-trifluoromethyl-pyridin-2-yloxymethyl)-phenyl]-3H-[1,2,3]triazole-4-carbonitrile]
- EC50 [1]: 650 nM
- BG1h (BG1h difference between compound group and vehicle group) ([2]; oral 10 mg/kg in 5% Arabia gum): −110.2

Compound: N#Cc1[nH]nnc1-c1cccc(OCc2cc(C(F)(F)F)ccc2C(F)(F)F)c1 [Example 60, 5-[3-(2,5-bis-trifluoromethyl-benzyloxy)-phenyl]-3H-[1,2,3]triazole-4-carbonitrile]
- EC50 [1]: 300 nM
- BG1h (BG1h difference between compound group and vehicle group) ([2]; oral 10 mg/kg in 5% Arabia gum): −132.0

Compound: CC(OC(=O)OCC(C)(C)C(=O)O)n1nc(C#N)c(-c2nc(-c3cccc(C(F)(F)F)c3)sc2Cl)n1 (stereo not drawn) [Example 1817, 3-(1-{4-[5-chloro-2-(3-trifluoromethyl-phenyl)-thiazol-4-yl]-5-cyano-2H-[1,2,3]triazol-2-yl}-ethoxycarbonyloxy)-2,2-dimethyl-propionic acid]
- BG1h (BG1h difference between compound group and vehicle group) ([2]; oral 30 mg/kg in 5% Arabia gum): −106.5

Compound: CC(OC(=O)OCC(C)(C)C(=O)O)n1nc(C#N)c(-c2csc(-c3cccc(OC(F)(F)F)c3)n2)n1 (stereo not drawn) [Example 1818, 3-(1-{4-cyano-5-[2-(3-trifluoromethoxy-phenyl)-thiazol-4-yl]-2H-[1,2,3]triazol-2-yl}-ethoxycarbonyloxy)-2,2-dimethyl-propionic acid]
- BG1h (BG1h difference between compound group and vehicle group) ([2]; oral 30 mg/kg in 5% Arabia gum): −33.0

Compound: CC(OC(=O)OCC(C)(C)C(=O)O)n1nc(C#N)c(-c2csc(-c3ccc(Cl)c(Cl)c3)n2)n1 (stereo not drawn) [Example 1819, 3-(1-{4-cyano-5-[2-(3,4-dichloro-phenyl)-thiazol-4-yl]-2H-[1,2,3]triazol-2-yl}-ethoxycarbonyloxy)-2,2-dimethyl-propionic acid]
- BG1h (BG1h difference between compound group and vehicle group) ([2]; oral 30 mg/kg in 5% Arabia gum): −54.3

Compound: Cc1sc(-c2ccc(C(F)(F)F)cc2)nc1-c1nn(C(C)OC(=O)OCC(C)(C)C(=O)O)nc1C#N (stereo not drawn) [Example 1820, 3-(1-{4-cyano-5-[5-methyl-2-(4-trifluoromethyl-phenyl)-thiazol-4-yl]-2H-[1,2,3]triazol-2-yl}-ethoxycarbonyloxy)-2,2-dimethyl-propionic acid]
- BG1h (BG1h difference between compound group and vehicle group) ([2]; oral 30 mg/kg in 5% Arabia gum): −77.0

Compound: CC(C)c1oc(-c2ccc(Cl)cc2)nc1-c1nn(C(C)OC(=O)OCC(C)(C)C(=O)O)nc1C#N (stereo not drawn) [Example 1822, 3-(1-{4-[2-(4-chloro-phenyl)-5-isopropyl-oxazol-4-yl]-5-cyano-2H-[1,2,3]triazol-2-yl}-ethoxycarbonyloxy)-2,2-dimethyl-propionic acid]
- BG1h (BG1h difference between compound group and vehicle group) ([2]; oral 30 mg/kg in 5% Arabia gum): −36.0

Compound: Cc1sc(-c2ccc(F)c(Cl)c2)nc1-c1nn(C(C)OC(=O)OCC(C)(C)C(=O)O)nc1C#N (stereo not drawn) [Example 1823, 3-(1-{4-[2-(3-chloro-4-fluoro-phenyl)-5-methyl-thiazol-4-yl]-5-cyano-2H-[1,2,3]triazol-2-yl}-ethoxycarbonyloxy)-2,2-dimethyl-propionic acid]
- BG1h (BG1h difference between compound group and vehicle group) ([2]; oral 30 mg/kg in 5% Arabia gum): −63.3

Compound: Cc1cc(-c2ccc(C(F)(F)F)nc2)cc(-c2nn(C(C)OC(=O)OCC(C)(C)C(=O)O)nc2C#N)c1 (stereo not drawn) [Example 1825, 3-(1-{4-cyano-5-[3-methyl-5-(6-trifluoromethyl-pyridin-3-yl)-phenyl]-2H-[1,2,3]triazol-2-yl}-ethoxycarbonyloxy)-2,2-dimethyl-propionic acid]
- BG1h (BG1h difference between compound group and vehicle group) ([2]; oral 30 mg/kg in 5% Arabia gum): −48.3

Compound: CC(OC(=O)OC(C)(C)CC(=O)O)n1nc(C#N)c(-c2cccc(OCc3cc(C(F)(F)F)ccc3C(F)(F)F)c2)n1 (stereo not drawn) [Example 1827, 3-(1-{4-[3-(2,5-bis-trifluoromethylbenzyloxy)phenyl]-5-cyano-2H-[1,2,3]triazol-2-yl}ethoxycarbonyloxy)-3-methylbutyric acid]
- BG1h (BG1h difference between compound group and vehicle group) ([2]; oral 30 mg/kg in 5% Arabia gum): −82.5

Compound: CC(OC(=O)OCCO)n1nc(C#N)c(-c2cccc(OCc3cc(C(F)(F)F)ccc3C(F)(F)F)c2)n1 (stereo not drawn) [Example 1828, carbonic acid 1-{4-[3-(2,5-bis-trifluoromethylbenzyloxy)phenyl]-5-cyano-2H-[1,2,3]triazol-2-yl}ethyl ester-2-hydroxyethyl ester]
- BG1h (BG1h difference between compound group and vehicle group) ([2]; oral 30 mg/kg in 5% Arabia gum): −69.3

Compound: CC(=O)OCn1nc(C#N)c(-c2cc(C)cc(-c3nccc(C(F)(F)F)n3)c2)n1 [Example 1829, acetic acid 4-cyano-5-[3-methyl-5-(4-trifluoromethylpyrimidin-2-yl)phenyl]-2H-[1,2,3]triazol-2-ylmethyl ester]
- BG1h (BG1h difference between compound group and vehicle group) ([2]; oral 30 mg/kg in 5% Arabia gum): −93.7

Compound: CC(=O)OCn1nc(C#N)c(-c2cc(Cl)cc(/C=C/c3cccc(C(F)(F)F)c3)c2)n1 [Example 1830, acetic acid 4-{3-chloro-5-[(E)-2-(3-trifluoromethylphenyl)vinyl]phenyl}-5-cyano-2H-[1,2,3]triazol-2-ylmethyl ester]
- BG1h (BG1h difference between compound group and vehicle group) ([2]; oral 30 mg/kg in 5% Arabia gum): −52.5

Compound: CCCC(=O)OCn1nc(C#N)c(-c2cc(Cl)cc(/C=C/c3cccc(C(F)(F)F)c3)c2)n1 [Example 1831]
- BG1h (BG1h difference between compound group and vehicle group) ([2]; oral 30 mg/kg in 5% Arabia gum): −61.0
